Source: patent publication US7199127B2, “Purine nucleosides” (United States of America, Represented by the Secretary, …, priority 2002, dated 2007)
Like-named read-outs stand apart in the source and are kept apart here.

Experiments:
rA2a adenosine receptor = molecular target: T1, rA2a adenosine receptor (Rattus norvegicus, UniProt P30543); test: Binding of [3H]CGS21680 to A2a (rat); details: for % Displacement rA2a: 10 μM, [3H]CGS21680
T1 construct: Striatal and forebrain tissues from Wistar rats were homogenized in ice-cold 50 mM Tris.HCl buffer; from tissue; host or cells: Wistar rat brain membranes (striatum for A2a is my own knowledge)
Protocol: (§3) The binding of [^3H]PIA ((R)-N^6-(phenylisopropyl)adenosine) to A1 and the binding of [^3H]CGS21680(2-[[[4-(2–Carboxyethyl-phenyl)ethylamino]-5′-N-thylcarbamoyl)adenosine) to A2a were measured as described below. Adenosine deaminase was added while the membrane was cultured at 30° C. for 30 min with the radioactive ligand. The IC50 values of each compound were determined for at least 6 different concentrations.
(§4) Striatal and forebrain tissues from Wistar rats were homogenized in ice-cold 50 mM Tris.HCl buffer, pH 7.4, using an electric homogenizer. The homogenate was centrifuged at 20,000 g for 10 min at 4° C., and the pellet was washed in fresh buffer. The final pellet was stored at −80° C. until the binding experiments.

hA1 adenosine receptor = molecular target: T2, hA1 adenosine receptor (Homo sapiens, UniProt P30542); test: Binding of [3H]PIA to A1 (human); details: Cheng-Prusoff
T2 sequence (P30542 1-326): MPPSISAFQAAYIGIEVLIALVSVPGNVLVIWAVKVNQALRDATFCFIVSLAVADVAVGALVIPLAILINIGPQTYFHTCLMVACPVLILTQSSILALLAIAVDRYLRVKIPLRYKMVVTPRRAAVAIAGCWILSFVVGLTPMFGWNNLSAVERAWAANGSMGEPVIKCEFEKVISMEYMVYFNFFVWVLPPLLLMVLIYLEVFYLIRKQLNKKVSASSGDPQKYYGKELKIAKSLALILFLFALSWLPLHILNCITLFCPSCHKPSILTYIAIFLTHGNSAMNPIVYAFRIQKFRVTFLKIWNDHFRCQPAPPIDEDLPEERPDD
Protocol: as §3

rA1 adenosine receptor = molecular target: T3, rA1 adenosine receptor (Rattus norvegicus, UniProt P25099); test: Binding of [3H]PIA to A1 (rat); details: Cheng-Prusoff
T3 construct: Striatal and forebrain tissues from Wistar rats were homogenized in ice-cold 50 mM Tris.HCl buffer; from tissue; host or cells: Wistar rat brain membranes (forebrain for A1 is my own knowledge)
T3 sequence (P25099 1-326): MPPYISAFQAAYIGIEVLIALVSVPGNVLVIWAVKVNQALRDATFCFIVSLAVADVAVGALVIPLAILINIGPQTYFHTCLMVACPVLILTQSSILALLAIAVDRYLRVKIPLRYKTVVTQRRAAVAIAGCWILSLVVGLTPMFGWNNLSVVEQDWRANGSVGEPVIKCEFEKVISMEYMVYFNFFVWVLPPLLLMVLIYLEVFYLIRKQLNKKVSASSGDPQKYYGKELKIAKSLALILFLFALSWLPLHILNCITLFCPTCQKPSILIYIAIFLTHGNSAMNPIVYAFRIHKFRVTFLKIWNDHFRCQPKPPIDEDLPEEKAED
Protocol: as §3, §4

hA2a adenosine receptor = hA2a adenosine receptor (Homo sapiens, UniProt P29274); test: Binding of [3H]CGS21680 to A2a (human); details: for Ki: [3H]CGS21680, Cheng-Prusoff
Protocol: as §3

hA3 adenosine receptor = molecular target: T4, hA3 adenosine receptor (Homo sapiens, UniProt P0DMS8); test: [125I]AB-MECA binding to membranes of CHO cells that express the A3 receptor; details: for Ki: [125I]AB-MECA, CHO cell membrane, Cheng-Prusoff
T4 construct: expressed in transfected cells; host or cells: CHO cells (ATCC CCL-61)
T4 sequence (P0DMS8 1-318): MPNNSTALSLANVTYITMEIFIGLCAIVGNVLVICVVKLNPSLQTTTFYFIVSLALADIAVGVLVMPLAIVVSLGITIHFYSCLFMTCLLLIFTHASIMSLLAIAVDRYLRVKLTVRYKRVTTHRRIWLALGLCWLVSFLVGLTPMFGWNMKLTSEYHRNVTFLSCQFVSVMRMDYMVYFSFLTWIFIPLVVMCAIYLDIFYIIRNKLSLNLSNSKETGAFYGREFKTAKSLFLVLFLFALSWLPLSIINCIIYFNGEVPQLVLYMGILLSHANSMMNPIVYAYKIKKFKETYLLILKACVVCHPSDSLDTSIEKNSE
Protocol: Chinese hamster ovary (CHO, ATCC; US Cell Strain Bank No. CCL-61) cells that express the A3 receptor were cultured at 37° C. in the presence of 5% carbon dioxide in F-12 culture medium (Gibco Company, USA) containing 10% fetal bovine serum (FBS) and penicillin/streptomycin (100 U/mL and 100 μg/mL), and used.
The inhibitor is first dissolved in dimethyl sulfoxide and diluted with buffer solution. The final concentration of DMSO should not exceed 1%. After culturing at 37° C. for 1 h, it was quickly filtered using a cell collector (TOMTEC Company, USA) and a GF/B filter (Whatman Company, USA). The test tube was rinsed three times with 3 mL of buffer solution, and the radioactivity was measured using a γ-counter.
CHO (Chinese hamster ovary) cells expressing recombinant the human A3AR were cultured in DMEM supplemented with 10% fetal bovine serum, 100 units/mL penicillin, 100 μg/mL streptomycin, 2 μmol/mL glutamine and 800 μg/mL geneticin. The CHO cells expressing rat A3ARs were cultured in DMEM and F 12 (1:1). Cells were harvested by trypsinization. After homogenization and suspension, cells were centrifuged at 500 g for 10 min, and the pellet was re-suspended in 50 mM Tris HCl buffer (pH 8.0) containing 10 mM MgCl2, 1 mM EDTA and 0.1 mg/mL CHAPS. The suspension was homogenized with an electric homogenizer for 10 sec, and was then re-centrifuged at 20,000 g for 20 min at 4° C. The resultant pellets were resuspended in buffer in the presence of 3 Units/mL adenosine deaminase, and the suspension was stored at −80° C. until the binding experiments. Striatal and forebrain tissues from Wistar rats were homogenized in ice-cold 50 mM Tris.HCl buffer, pH 7.4, using an electric homogenizer. The homogenate was centrifuged at 20,000 g for 10 min at 4° C., and the pellet was washed in fresh buffer. The final pellet was stored at −80° C. until the binding experiments.
The mixtures were incubated at 37° C. for 60 min. Binding reactions were terminated by filtration through Whatman GF/B filters under reduced pressure using a MT-24 cell harvester (Brandell, Gaithersburgh, Md., USA). Filters were washed three times with 9 mL ice-cold buffer. Radioactivity was determined in a Beckman 5500γ-counter.

ICR family mice = test: Toxicity test in mice; assay type: in vivo; details: mice, 20, 10 and 1 mg/kg peritoneally, observed for 24 h
Protocol: (§1) Animal studies were carried out to test the toxicity of the compounds pared in the present invention.
(§2) 25±5 g ICR family mice (Joongang Study Animal) and 235±10 g specific pathogen free (SPF) Sprague Dawley rats (Joongang Study Animal) were divided into 3 groups.

Sprague Dawley rats = test: Toxicity test in rats; assay type: in vivo; details: rats, 20, 10 and 1 mg/kg peritoneally, observed for 24 h
Protocol: as §1, §2

[1] = [3H]CGS21680, Cheng-Prusoff, read-out: Ki rA2a

T1 sequence (P30543 whole entry): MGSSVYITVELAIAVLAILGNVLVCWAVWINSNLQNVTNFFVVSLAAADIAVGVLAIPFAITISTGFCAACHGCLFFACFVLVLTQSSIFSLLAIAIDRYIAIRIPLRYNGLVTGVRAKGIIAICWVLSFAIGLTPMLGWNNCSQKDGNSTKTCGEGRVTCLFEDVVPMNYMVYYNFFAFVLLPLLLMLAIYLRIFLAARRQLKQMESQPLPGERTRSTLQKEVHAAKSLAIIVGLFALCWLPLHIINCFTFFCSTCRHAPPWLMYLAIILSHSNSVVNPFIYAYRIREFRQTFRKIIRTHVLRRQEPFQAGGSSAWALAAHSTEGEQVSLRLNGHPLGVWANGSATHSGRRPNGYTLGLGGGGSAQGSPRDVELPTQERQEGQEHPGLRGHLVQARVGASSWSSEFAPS
hA2a adenosine receptor, sequence (P29274 whole entry): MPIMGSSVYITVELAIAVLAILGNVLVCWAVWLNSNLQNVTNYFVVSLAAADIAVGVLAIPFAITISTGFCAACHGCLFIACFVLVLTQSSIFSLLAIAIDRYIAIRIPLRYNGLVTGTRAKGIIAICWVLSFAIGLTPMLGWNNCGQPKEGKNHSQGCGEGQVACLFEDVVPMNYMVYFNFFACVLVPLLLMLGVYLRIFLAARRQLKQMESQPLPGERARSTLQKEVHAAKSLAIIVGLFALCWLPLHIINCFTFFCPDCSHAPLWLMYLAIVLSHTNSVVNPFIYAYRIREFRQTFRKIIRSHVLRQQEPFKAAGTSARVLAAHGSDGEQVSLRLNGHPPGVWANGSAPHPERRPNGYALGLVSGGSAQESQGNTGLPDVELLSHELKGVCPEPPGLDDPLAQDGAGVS

| Compound | % Displacement rA2a (rA2a adenosine receptor) [%] | Ki (rA1 adenosine receptor) [nM] | Ki (hA3 adenosine receptor) [nM] | Ki (rA2a adenosine receptor; [1]) [nM] | other results |
| --- | --- | --- | --- | --- | --- |
| CNC(=O)[C@H]1S[C@@H](n2cnc3c(N)nc(Cl)nc32)[C@H](O)[C@@H]1O [Compound 29] | <10 | 294 | 0.4 | – | Ki (hA1 adenosine receptor): 89.2 nM; Ki (hA2a adenosine receptor): 158 nM |
| OC[C@H]1S[C@@H](n2cnc3c(NCc4cccc(I)c4)nc(Cl)nc32)[C@H](O)[C@@H]1O [Compound 20, (2R,3R, 4S,5R)-2-[2-chloro-6-(3-iodobenzylamino)purin-9-yl]-5-hydroxymethyltetrahydrothiophene-3,4-diol] | – | 127 | 3.2 | 285 | melting point: 112 to 114 °C |
| CNc1nc(Cl)nc2c1ncn2[C@@H]1S[C@H](CO)[C@@H](O)[C@H]1O [Compound 23, (2R,3R,4S,5R)-2-(2-chloro-6-methylaminopurin-9-yl)-5-hydroxymethyltetrahydrothiophene-3,4-diol] | <10 | 780 | 0.8 | – | – |
| Nc1nc(Cl)nc2c1ncn2[C@@H]1S[C@H](CO)[C@@H](O)[C@H]1O [Compound 25, (2R,3R,4S,5R)-2-(2-chloro-6-aminopurin-9-yl)-5-hydroxymethyltetrahygrothiophene-3,4-diol] | – | 238 | 4.9 | – | Ki (rA2a adenosine receptor): 705 nM |
| CNC(=O)[C@H]1S[C@@H](n2cnc3c(NC)nc(Cl)nc32)[C@H](O)[C@@H]1O [Compound 33, (2S,3S,4R,5R)-5-(2-chloro-6-methylaminopurin-9-yl)-3,4-dihydroxytetrahydrothiophene-2-carboxylic acid methyl amide] | – | 198 | – | 6340 | deaths (ICR family mice): no deaths were observed; symptoms (weight increase, feed intake) versus control group (ICR family mice): no other observable symptoms; Ki (hA1 adenosine receptor): 1330 nM; deaths (Sprague Dawley rats): no deaths were observed; symptoms (weight increase, feed intake) versus control group (Sprague Dawley rats): no other observable symptoms; % Displacement hA2a (hA2a adenosine receptor; 10 μM, [3H]CGS21680): 20%; A3 agonist activity (hA3 adenosine receptor; in words, compared with known compounds): most strong and selective A3 agonist activity among the known compounds |
| CNC(=O)[C@]1(n2cnc3c(NCc4cccc(I)c4)nc(Cl)nc32)SC[C@H](O)[C@@H]1O [Compound 12, (2R,3S,4R)-2-[2-chloro-6-(3-iodobenzylamino)purin-9-yl)-3,4-dihydroxytetrahydrothiophene-2-carboxylic acid methyl amide] | <10 | 188 | – | – | melting point: 205 to 207 °C |
| CNC(=O)[C@H]1S[C@@H](n2cnc3c(NCc4cccc(I)c4)nc(Cl)nc32)[C@H](O)[C@@H]1O [Compound 36] | – | 140 | – | 348 | Ki (hA2a adenosine receptor): 223 nM |
